Results on one compound are retold here after patent US20180370918A1, “SORAFENIB HEMI-P-TOSYLATE MONOHYDRATE CRYSTAL AND PREPARATION PROCESS THEREOF” (CHIA TAI TIANQING PHARMACEUTICAL GROUP CO., LTD., priority 2015, published 2018).

Data set [1] in a line: Stability test (Chinese Pharmacopoeia 2010, Guideline for Stability Test of Bulk Drug), purity by HPLC. The data set is classed as physicochemical. The protocol:
Chromatographic column: Agilent peptide map chromatographic column (3.0×150 mm, 2.7 μm)
Mobile phase A: phosphate buffer solution (monopotassium phosphate (0.79 g) was weighted and dissolved in water, then diluted to 1000 ml, and further adjusted to pH=2.4 with phosphoric acid)
Mobile phase B: ethanol-acetonitrile (40:60)
Detection wavelength: 235 nm for detection
Column temperature: 55° C.
Solvent: mobile phase A-mobile phase B (1:3)
Preparation of a solution of a test sample: an appropriate amount of the test sample was weighted and dissolved in the solvent [mobile phase A-mobile phase B (1:3)], then diluted to a solution which comprises about 0.16 mg of sorafenib per 1 ml as the solution of the test sample.
The stability test for the sorafenib hemi-p-tosylate monohydrate crystal of the present invention was conducted according to the Chinese Pharmacopoeia (2010), Part 11, Appendix XIX C: Guideline for Stability Test of Bulk Drug and Pharmaceutical Preparation.

Data set [2] is described as follows: Hygroscopicity test (Chinese Pharmacopoeia 2010, Guideline for Hygroscopicity Test of Drug). The data set is classed as physicochemical. The protocol: The hygroscopicity test for the sorafenib hemi-p-tosylate monohydrate crystal of the present invention was conducted according to the Chinese Pharmacopoeia (2010), Part II, Appendix XIX J: Guideline for Hygroscopicity Test of Drug.

Turning to `CNC(=O)c1cc(Oc2ccc(NC(=O)Nc3ccc(Cl)c(C(F)(F)F)c3)cc2)ccn1` [sorafenib hemi-p-tosylate monohydrate], the Purity in data set [1] (Day 0) came out at 99.96%; in data set [1] (Exposure test to light (luminance: 6000 Lux), standing for 10 days), 99.97%; in data set [1] (Shading test (luminance: 6000 Lux), standing for 10 days) it was 99.96%; in data set [1] (Standing for 6 months at 25° C. ± 2° C. and humidity of 60% ± 5%), 99.96%; in data set [1] (Standing for 10 days at 25° C. and humidity of 92.5% ± 5%), 99.96%; in data set [1] (Standing for 10 days at 40° C.), 99.96%. Besides, in data set [1] (Standing for 10 days at 60° C.), the Purity amounted to 99.95%. Moreover, in data set [1] (results of Table 4), the “Stability (conclusion in words)” value is reported as “highly stable”. The “Hygroscopic weight grain (%)” value in data set [2] worked out at 0.07%.
